# Experimental data reported in patent US20080025966A1, “Methods And Compositions For The Treatment Of Gastrointestinal disorders” (priority 2004, published 2008).
# No end group written: not given here.
# Assays:
# human HT-29/B6 cells = conditions: cited from earlier work
# [1] = system: guanylin-induced intestinal fluid secretion; conditions: suckling mouse model; chymostatin given with guanylin; cited from earlier work
# chymotrypsin [2] = target: T1, chymotrypsin (Bos taurus, UniProt P00766); experiment: Guanylin degradation assay (chymotrypsin digestion) read out in the T84 cGMP assay; format: biochemical, bovine; conditions: T84 cells, FIG. 1
# T1 construct: purchased Sigma C6423
# Experimental: Since guanylin is susceptible to digestion by chymotrypsin, chymotrypsin activity can be assayed based on guanylin cleavage. […] From this stock, six (6) 500 μl aliquots were prepared in 2 ml Eppendorf tubes and labeled “Control”, “T0”, “T15”, “T30”, “T60”, and “T180”, with “T_” representing timepoints, in minutes. 5 μl of a 10 mM chymostatin (Sigma, C7268) stock (5 mg of chymostatin resuspended in 824 μl of DMSO) was added to the “Control” samples and all samples were incubated for 5 minutes at 30° C. Chymostatin inhibits chymotrypsin activity and this sample served as a negative control. Next, 20 μl of a chymotrypsin (Sigma, C6423) enzyme solution (0.01 mg/ml bovine chymotrypsin enzyme in 1 mM HCl, 2 mM Calcium Chloride) were added to the samples and mixed by inversion. Samples are incubated at 30° C. […] Determination of sensitivity to digestion by chymotrypsin was determined by LCMS analysis and by in vitro activity in the T84 cGMP assays described below.
# The ability of guanylin to activate the intestinal GC-C receptor was assessed in an assay employing the T84 human colon carcinoma cell line (American Type Culture Collection (Bethesda, Md.). For the assays cells were grown to confluency in 24-well culture plates with a 1:1 mixture of Ham's F12 medium and Dulbecco's modified Eagle's medium (DMEM), supplemented with 5% fetal calf serum and were used at between passages 54 and 60. […]
# chymotrypsin [3] = conditions: cited from earlier work
molecule,measurement,setting,value
"CC(C)(C)NC(=O)[C@@H]1C[C@@H]2CCCC[C@@H]2CN1C[C@@H](O)[C@H](Cc1ccccc1)NC(=O)[C@H](CC(N)=O)NC(=O)c1ccc2ccccc2n1 [saquinavir, Saquinavir]",effect on the epithelial barrier,human HT-29/B6 cells,impair the epithelial barrier
CC(C)c1nc(CN(C)C(=O)N[C@H](C(=O)N[C@@H](Cc2ccccc2)C[C@H](O)[C@H](Cc2ccccc2)NC(=O)OCc2cncs2)C(C)C)cs1 [ritonavir],effect on the epithelial barrier,human HT-29/B6 cells,impair the epithelial barrier
CC(C)C[C@H](NC(=O)[C@@H](NC(=O)N[C@@H](Cc1ccccc1)C(=O)O)C1CCNC(=N)N1)C(=O)N[C@H](C=O)Cc1ccccc1 (stereo partly shown) [chymostatin],guanylin-induced intestinal fluid secretion,[1],required in order to observe guanylin-induced intestinal fluid secretion
same,guanylin stimulated cGMP activity with chymotrypsin inhibitor present,chymotrypsin [2]; chymostatin added before chymotrypsin digestion of guanylin,retained
same,chymotrypsin-mediated inactivation of guanylin,chymotrypsin [3],can be prevented
"guanylin: intestinal peptide of 15 amino acids, agonist of the guanylate cyclase (GC-C) receptor; Sigma G-116 (PGTCEICAYAACTGC; ends and bridges not checked; cysteine pairing not given here; UniProt Q02747 101-115, looked up)",guanylin stimulated cGMP activity,"chymotrypsin [2]; guanylin digested with chymotrypsin at 30° C., timepoints 0-180 min, no chymostatin",decreases over time
"Cc1c(O)cccc1C(=O)N[C@@H](CSc1ccccc1)[C@H](O)CN1C[C@H]2CCCC[C@H]2C[C@H]1C(=O)NC(C)(C)C [nelfinavir, Nelfinavir]",effect on the epithelial barrier,human HT-29/B6 cells,impair the epithelial barrier
